Measured values as given in ChEMBL document CHEMBL4765266, “Design, synthesis and structure-activity relationships of 4-phenyl-1H-1,2,3-triazole phenylalanine derivatives as novel HIV-1 capsid inhibitors with promising antiviral activities” (Eur J Med Chem, 2020).
Calls of active or inactive are those of the source. No cut-off for these calls is given here.

Assays:
[1] = tested on: Human immunodeficiency virus 1; test: Antiviral activity against HIV1 NL4-3 infected in human TZM-bl cells assessed as reduction in virus induced cytopathic effect measured after 2 days by luciferase gene expression assay; format: functional, organism-based; details: Human immunodeficiency virus 1, NL4-3, TZM-bl, 48 h
in vitro [2] = details: human, TZM-bl cells
Description: Selectivity index, ratio of CC50 for human TZM-bl cells to EC50 for HIV1 NL4-3 infected in human TZM-bl cells

TZM = test: Cytotoxicity against in human TZM-bl cells assessed as reduction in cell viability measured after 2 days by CytoTox-Glo cytotoxicity assay; details: 48 h
[3] = Binding affinity to HIV1 NL4-3 capsid protein hexamer assessed as dissociation constant by SPR analysis; set-up: species or system Human immunodeficiency virus 1
[4] = Binding affinity to HIV1 NL4-3 capsid protein monomer assessed as dissociation constant by SPR analysis; set-up: species or system Human immunodeficiency virus 1
[5] = tested on: Human immunodeficiency virus 1; test: Antiviral activity against HIV1 NL4-3 Env-deficient pseudotype virus infected in human U87/CD4/CCR5 cells assessed by reduction in viral production in early stage measured after 48 hrs by luciferase activity based single-round infection assay; format: functional, organism-based; details: Human immunodeficiency virus 1, NL4-3, U87/CD4/CCR5, 48 h
[6] = tested on: Human immunodeficiency virus 1; test: Antiviral activity against HIV1 NL4-3 Env-deficient pseudotype virus infected in human U87/CD4/CCR5 cells assessed by reduction in viral production in late stage measured after 48 hrs by luciferase activity based single-round infection assay; format: functional, organism-based; details: Human immunodeficiency virus 1, NL4-3, U87/CD4/CCR5, 48 h
[7] = tested on: Human immunodeficiency virus 1; test: Antiviral activity against HIV1 NL4-3 Env-pseudotype virus in human U87/CD4/CCR5 cells assessed as reduction in p24 production at 10 uM by ELISA reader relative to control; format: functional
U87/CD4/CCR5 [8] = test: Effect on HIV1 NL4-3 capsid protein assembly at 50 uM measured every 1 min for 19 mins by Spectrophotometer method; details: Human immunodeficiency virus 1
[9] = Metabolic stability in human plasma assessed as parent compound remaining after 10 mins by LC/MS/MS method; format: ADME, cell-free
[10] = Metabolic stability in human plasma assessed as parent compound remaining after 30 mins by LC/MS/MS method; format: ADME, cell-free; details: 0.5 h
[11] = Metabolic stability in human plasma assessed as parent compound remaining after 60 mins by LC/MS/MS method; format: ADME, cell-free; details: 1 h
[12] = Metabolic stability in human plasma assessed as parent compound remaining after 120 mins by LC/MS/MS method; format: ADME, cell-free; details: 2 h
[13] = human, microsomes, 1 h
[14] = human, microsomes, 1 h; remark: listed apart in the source
[15] = human, microsomes, 1 h; remark: listed apart in the source
Description: Metabolic stability in human liver microsomes assessed as parent compound remaining in absence of NADPH after 1 hr by LC/MS/MS method

in vitro [16] = details: human, liver microsomes
Description: Metabolic stability in human liver microsomes assessed as parent compound remaining in presence of NADPH after 1 hr by LC/MS/MS method

U87/CD4/CCR5 [17] = test: Induction of HIV1 NL4-3 capsid protein assembly at 50 uM measured every 1 min for 19 mins by Spectrophotometer method; details: Human immunodeficiency virus 1

SMILES	EC50 [1] [µM]	selectivity ratio (in vitro [2])	CC50 (TZM) [µM]	also measured
COc1ccc(N(C)C(=O)[C@H](Cc2ccccc2)NC(=O)Cn2cc(-c3cccc(NC(=O)c4ccccc4)c3)nn2)cc1	12.7	> 1.33	> 17	
COC(=O)c1ccc(C(=O)Nc2ccccc2-c2cn(CC(=O)N[C@@H](Cc3ccccc3)C(=O)N(C)c3ccc(OC)cc3)nn2)cc1	> 15.5		> 15.5	
COc1ccc(N(C)C(=O)[C@H](Cc2ccccc2)NC(=O)Cn2cc(-c3ccc(NC(=O)c4ccccc4OC)cc3)nn2)cc1	> 16.2		> 16.2	
COc1ccc(N(C)C(=O)[C@H](Cc2ccccc2)NC(=O)Cn2cc(-c3ccccc3NC(=O)c3ccc(F)cc3)nn2)cc1	3.46	> 4.76	> 16.5	
COc1ccc(N(C)C(=O)[C@H](Cc2ccccc2)NC(=O)Cn2cc(-c3cccc(NC(=O)c4ccc(C)cc4)c3)nn2)cc1	> 16.6		> 16.6	
COc1ccc(N(C)C(=O)[C@H](Cc2ccccc2)NC(=O)Cn2cc(-c3cccc(NC(=O)c4cccc(F)c4)c3)nn2)cc1	9.56	> 1.72	> 16.5	
COc1ccc(N(C)C(=O)[C@H](Cc2ccccc2)NC(=O)Cn2cc(-c3cccc(NC(=O)c4ccccc4OC)c3)nn2)cc1	> 16.2		> 16.2	
COc1ccc(N(C)C(=O)[C@H](Cc2ccccc2)NC(=O)Cn2cc(-c3ccc(NC(=O)c4cccc(F)c4)cc3)nn2)cc1	12.7	> 1.3	> 16.5	
COc1ccc(N(C)C(=O)[C@H](Cc2ccccc2)NC(=O)Cn2cc(-c3cccc(NC(=O)c4ccccc4F)c3)nn2)cc1	13.5	> 1.22	> 16.5	
COc1ccc(N(C)C(=O)[C@H](Cc2ccccc2)NC(=O)Cn2cc(-c3cccc(N)c3)nn2)cc1	3.3	> 6.25	> 20.6	Kd [3]: 4 µM; Kd [4]: 15.8 µM
COc1ccc(N(C)C(=O)[C@H](Cc2ccccc2)NC(=O)Cn2cc(-c3ccc(NC(=O)c4ccc(C)cc4)cc3)nn2)cc1	> 16.6		> 16.6	
COc1ccc(N(C)C(=O)[C@H](Cc2ccccc2)NC(=O)Cn2cc(-c3ccccc3NC(C)=O)nn2)cc1	3.99	> 4.76	> 19	
COc1ccc(N(C)C(=O)[C@H](Cc2ccccc2)NC(=O)Cn2cc(-c3ccccc3NC(=O)c3ccccc3F)nn2)cc1	3.13	> 5.27	> 16.5	Kd [3]: 6.04 µM; Kd [4]: 7.95 µM; IC50 [5]: 8.18 µM; IC50 [6]: 0.32 µM; inhibition at 10 µM ([7]; Human immunodeficiency virus 1, NL4-3, U87/CD4/CCR5): 15%; Activity (U87/CD4/CCR5 [8]): inactive; Stabilty [9]: 91.3%; Stabilty [10]: 94.6%; Stabilty [11]: 86.9%; Stabilty [12]: 107.4%; t1/2 [13]: 0.9 min; CLH [14]: 1559.4 µL/min/mg; Stabilty [15]: 122.1%; remaining at 1 h (in vitro [16]): 0.3%
COc1ccc(N(C)C(=O)[C@H](Cc2ccccc2)NC(=O)Cn2cc(-c3ccc(N)cc3)nn2)cc1	13.6	> 1.51	> 20.6	
COc1ccc(N(C)C(=O)[C@H](Cc2ccccc2)NC(=O)Cn2cc(-c3cccc(NC(C)=O)c3)nn2)cc1	14.8	> 1.28	> 19	
COC(=O)c1ccc(C(=O)Nc2ccc(-c3cn(CC(=O)N[C@@H](Cc4ccccc4)C(=O)N(C)c4ccc(OC)cc4)nn3)cc2)cc1	> 15.5		> 15.5	
COc1ccc(N(C)C(=O)[C@H](Cc2ccccc2)NC(=O)Cn2cc(-c3ccccc3NC(=O)c3cccc(F)c3)nn2)cc1	3.3	> 4.99	> 16.5	Kd [3]: 4.99 µM; Kd [4]: 6.8 µM
COc1ccc(N(C)C(=O)[C@H](Cc2ccccc2)NC(=O)Cn2cc(-c3ccccc3NC(=O)c3ccc(-c4ccccc4)cc3)nn2)cc1	> 15		> 15	
COc1ccc(N(C)C(=O)[C@H](Cc2ccccc2)NC(=O)Cn2cc(-c3ccc(NC(=O)c4cccc(OC)c4)cc3)nn2)cc1	> 16.2		> 16.2	
COc1ccc(N(C)C(=O)[C@H](Cc2ccccc2)NC(=O)Cn2cc(-c3ccccc3NC(=O)c3ccc(C#N)cc3)nn2)cc1	> 16.3		> 16.3	
Cc1[nH]c2ccccc2c1CC(=O)N[C@@H](Cc1ccccc1)C(=O)N(C)c1ccccc1	0.28		> 23.5	Kd [4]: 2.4 µM; IC50 [5]: 0.056 µM; IC50 [6]: 0.23 µM; inhibition [7]: Active; Stabilty [9]: 87.3%; Stabilty [10]: 83.4%; Stabilty [11]: 86.5%; Stabilty [12]: 85.6%; Activity (U87/CD4/CCR5 [17]): Active; CLH [14]: 2403 µL/min/mg

SMILES	EC50 [1] [µM]	selectivity ratio (in vitro [2])	CC50 (TZM) [µM]	also measured
COc1ccc(N(C)C(=O)[C@H](Cc2ccccc2)NC(=O)Cn2cc(-c3ccc(NC(=O)c4ccccc4F)cc3)nn2)cc1	11.9	> 1.39	> 16.5	
CC(C)[N+](C)(CCOC(=O)C1c2ccccc2Oc2ccccc21)C(C)C.[Br-] [PROPANTHELINE BROMIDE]				Stabilty [9]: 47.7%; Stabilty [10]: 9.1%; Stabilty [11]: 0.6%
COc1ccc(C(=O)Nc2ccc(-c3cn(CC(=O)N[C@@H](Cc4ccccc4)C(=O)N(C)c4ccc(OC)cc4)nn3)cc2)cc1	> 16.2		> 16.2	
COc1ccc(C(=O)Nc2ccccc2-c2cn(CC(=O)N[C@@H](Cc3ccccc3)C(=O)N(C)c3ccc(OC)cc3)nn2)cc1	> 16.2		> 16.2	
COc1ccc(N(C)C(=O)[C@H](Cc2ccccc2)NC(=O)Cn2cc(-c3cccc(NC(=O)c4ccc(C#N)cc4)c3)nn2)cc1	12.9	> 1.27	> 16.3	
COc1ccc(N(C)C(=O)[C@H](Cc2ccccc2)NC(=O)Cn2cc(-c3cccc(NC(=O)c4cccc(OC)c4)c3)nn2)cc1	> 16.2		> 16.2	
COc1ccc(N(C)C(=O)[C@H](Cc2ccccc2)NC(=O)Cn2cc(-c3ccc(NC(=O)c4ccc(C#N)cc4)cc3)nn2)cc1	12.4	> 1.32	> 16.3	
COc1ccc(N(C)C(=O)[C@H](Cc2ccccc2)NC(=O)Cn2cc(-c3ccccc3NC(=O)c3cccc(OC)c3)nn2)cc1	12.8	> 1.27	> 16.2	
COc1ccc(N(C)C(=O)[C@H](Cc2ccccc2)NC(=O)Cn2cc(-c3ccccc3NC(=O)c3ccccc3OC)nn2)cc1	8.41	> 1.92	> 16.2	
C[C@]12CC[C@H]3[C@@H](CCC4=CC(=O)CC[C@@]43C)[C@@H]1CC[C@@H]2O [TESTOSTERONE]				t1/2 [13]: 7.4 min; CLH [14]: 188.3 µL/min/mg
COc1ccc(N(C)C(=O)[C@H](Cc2ccccc2)NC(=O)Cn2cc(-c3cccc(NC(=O)c4ccc(F)cc4)c3)nn2)cc1	> 16.5		> 16.5	
COc1ccc(N(C)C(=O)[C@H](Cc2ccccc2)NC(=O)Cn2cc(-c3ccccc3NC(=O)c3ccccc3)nn2)cc1	3.74	> 4.54	> 17	
COc1ccc(C(=O)Nc2cccc(-c3cn(CC(=O)N[C@@H](Cc4ccccc4)C(=O)N(C)c4ccc(OC)cc4)nn3)c2)cc1	> 16.2		> 16.2	
COc1ccc(N(C)C(=O)[C@H](Cc2ccccc2)NC(=O)Cn2cc(-c3ccc(NC(C)=O)cc3)nn2)cc1	> 19		> 19	
COc1ccc(N(C)C(=O)[C@H](Cc2ccccc2)NC(=O)Cn2cc(-c3ccccc3N)nn2)cc1	3.92	> 5.27	> 20.6	
COc1ccc(N(C)C(=O)[C@H](Cc2ccccc2)NC(=O)Cn2cc(-c3ccccc3NC(=O)c3ccc(C)cc3)nn2)cc1	> 16.6		> 16.6	
COC(=O)c1ccc(C(=O)Nc2cccc(-c3cn(CC(=O)N[C@@H](Cc4ccccc4)C(=O)N(C)c4ccc(OC)cc4)nn3)c2)cc1	> 15.5		> 15.5	
COc1ccc(N(C)C(=O)[C@H](Cc2ccccc2)NC(=O)Cn2cc(-c3ccc(NC(=O)c4ccc(F)cc4)cc3)nn2)cc1	13	> 1.27	> 16.5	
COc1ccc(N(C)C(=O)[C@H](Cc2ccccc2)NC(=O)Cn2cc(-c3ccc(NC(=O)c4ccc(-c5ccccc5)cc4)cc3)nn2)cc1	12.2	> 1.23	> 15	
COc1ccc(N(C)C(=O)[C@H](Cc2ccccc2)NC(=O)Cn2cc(-c3ccc(NC(=O)c4ccccc4)cc3)nn2)cc1	12.9	> 1.32	> 17	
COc1ccc(N(C)C(=O)[C@H](Cc2ccccc2)NC(=O)Cn2cc(-c3cccc(NC(=O)c4ccc(-c5ccccc5)cc4)c3)nn2)cc1	> 15		> 15	
